Key:
[1] = tested on: Raw 264.7 mouse macrophages; assay: Cell viability of LPS-treated Raw 264.7 macrophages; format: cell-based
Procedure: (§1) Raw 264.7 mouse macrophages were aliquoted in a 96-well plate at the density of 1×10^5 cells/well and stabilized in a 37° C., 5% CO2 incubator for 24 hours. The Raw 264.7 cells were treated with the compound of Example 1 by concentration. After 1 hour, the cells were treated with 1 ug/ml of LPS and cultured for 24 hours. For the measurement of NO production, 40 mg/ml of Griess reagent was prepared and it was mixed with the culture supernatant at the same ratio. The mixture was reacted at room temperature for 15 minutes, and absorbance was measured at 540 nm. Based on the results obtained therefrom, the cell viability and NO production rate were expressed as percentages in terms of LPS.

[2] = tested on: artificial corneal tissue; assay: Ocular toxicity test on artificial cornea (MTT); format: cell-based; settings: up to 50 μM, the maximum concentration
Procedure: In order to evaluate the ocular toxicity that may be induced upon ocular exposure of the compound of Example 1 of the present invention, the following experiment was performed using the cultured artificial cornea.
The artificial corneal tissue cultured in agarose medium was transferred to a 12-well cell culture plate, to which culture medium was added, followed by culture in a humidified 37° C. 5% CO2 incubator for one day. The medium on the artificial cornea culture surface was eliminated, and 30 μl of the compound of Example 1 of the present invention diluted with PBS was evenly applied to the cornea surface, followed by incubation at room temperature for 30 minutes. The cell surface was washed twice with 10 ml of PBS, and a fresh culture medium was added, followed by incubation in a humidified 37° C. 5% CO2 incubator for 30 minutes. In order to measure the viability of the cornea, the artificial cornea was transferred to a 12-well plate containing 2 ml of MTT solution (1 mg/ml), followed by culture for 3 hours. The stained artificial corneal tissue was taken and transferred to a tube containing 1.5 ml of isopropanol, and then incubated with shaking to decolorize. The solution was centrifuged at 13,000 rpm for 5 minutes, 100 μl of the supernatant was transferred to each well of a 96-well plate, and absorbance was measured at 570 nm.

NO production = NO production in LPS-treated Raw 264.7 macrophages (Griess reagent); format: cell-based, mouse
Procedure: In order to confirm the effect of the compound of Example 1 of the present invention on NO production in Raw 264.7 mouse macrophages in which inflammatory response was induced by LPS, an experiment was performed as follows.
as §1

zebrafish = assay: Fatty liver inhibitory effect in tamoxifen-treated zebrafish juvenile fish (LipidGreen2 staining); format: in vivo
Procedure: In order to evaluate the inhibitory efficacy of the novel isoquinoline derivative of the present invention on fatty liver, an experiment was performed as follows using LipidGreen2 staining reagent capable of staining lipid droplets.
Particularly, the zebrafish used in this Experimental Example were juvenile fish 5 days after fertilization. Healthy juvenile fish were placed in a 24-well plate (10/well), and 1 ml of egg water was added to each well of the plate. As a negative control that could not regulate fatty liver, DMSO diluted at 0.4% was exposed to juvenile fish, and tamoxifen (Sigma-Aldrich, T5648) diluted at 5 μM was exposed to juvenile fish to control […] fatty liver. In order to investigate the fatty liver inhibitory efficacy of the compound of Example 1 of the present invention, the compound (0.5 μM, 1 μM and 5 μM) was mixed with 5 μM tamoxifen and exposed to juvenile fish (final volume of each well: 2 ml). The 24-well plate containing the compound was wrapped in foil to block light, and then incubated in a 28° C. incubator for 22 hours. The plate was washed with egg water 3 times for 5 minutes to remove the compound from each well. For fat-specific staining, LipidGreen2 diluted at 5 μM was exposed to juvenile fish for 30 minutes, and then washed 3 times with egg water for 5 minutes. To evaluate the fatty liver of zebrafish juvenile fish, the developing embryo was anesthetized with Tricaine (4 g/L), and then photographed on 3% methyl cellulose. As the equipment for photographing the developing embryo, a LEICA MZ10F fluorescence microscope, a LEICA DFC425 camera, and Leica Application Suite software (v4.5) were used. For the fluorescence wavelength, a GFP Plants filter set (Excitation 470/40 nm, Emission 525/50 nm) was used. To quantify the liver area and the degree of fat staining of juvenile fish on the image, the area and the fluorescence intensity of the liver part of each image were quantified using ImageJ 1.50i software (National Institutes of Health, USA) and converted into heatmap images.

[3] = tested on: VERO, HFL-1, L929, NIH 3T3, CHO-K1 and HMV-II cell lines; assay: Non-selective general cytotoxicity test; format: cell-based; settings: all cell lines, 24 hours
Procedure: In this experiment, the cell lines derived from different species, VERO (African green monkey kidney cell line), HFL-1 (human embryonic lung cell line), L929 (mouse fibroblast cell line), NIH 3T3 (mouse embryonic fibroblast cell line), CHO-K1 (Chinese hamster ovary cell line) and HMV-II (human malignant melanoma cell line), were used.
Particularly, VERO, HFL-1, L929 and NIH 3T3 cell lines were cultured in DMEM, CHO-K1 was cultured in RPMI1640 medium, and HMV-II was cultured in DME/F-12 medium. 10% FBS (Fetal Bovine Serum) and 100 μg/mL of antibiotics were added to each medium. The cells were acclimatized and cultured in a humidified 37° C. 5% CO2 incubator, washed with PBS (phosphate buffer solution) at the time of growth that occupies 70-80% of the culture dish every 2-3 days, and then subcultured by treating with Trypsin-EDTA (Gibco, USA).
The cells used in this Experimental Example were aliquoted into a 96-well culture plate at the density of 15,000-25,000 cells/well, and then acclimatized and cultured in a humidified 37° C. […] The cell viability was measured according to the standard method using a Cyto XTM cell viability assay kit ([…]). […] 5% CO2 incubator, followed by measuring the absorbance at 450 nm. The survival rate was measured by calculating the ratio of the absorbance changed compared to the absorbance measured in the group treated with DMSO alone.

Compound: [O-][S+](c1ccc(F)cc1)c1nccc2ccccc12 (stereo not shown) [Example 1, 1-((4-Fluorophenyl)Sulfinyl)Isoquinoline]
- cytotoxicity ([1]; LPS-treated Raw 264.7, 0.1, 0.5, 1, 10 and 100 μM (FIG. 3)): no significant cytotoxicity
- Cell viability (% of control) ([1]; LPS-treated Raw 264.7 cells, 24 hours, test concentration not given): 90 % of control
- survival rate of artificial cornea [2]: no significant decrease of the survival rate
- NO production (% of control) (NO production; 1 ug/ml LPS, 24 hours, Raw 264.7 cells, test concentration not given): 40 % of control
- NO production (NO production; LPS-treated Raw 264.7, 0.1, 0.5, 1, 10 and 100 μM, effect increased with concentration (FIG. 3)): inhibited
- fatty liver (LipidGreen2 fat staining) (zebrafish; 0.5, 1 and 5 μM mixed with 5 μM tamoxifen, 22 hours, juvenile fish 5 days after fertilization): restored to the normal level
- liver area (zebrafish; compound mixed with 5 μM tamoxifen, 22 hours (FIG. 8 top)): maintained at the liver area level of normal juvenile fish
- fluorescence intensity of liver (LipidGreen2) (zebrafish; compound mixed with 5 μM tamoxifen, compared to tamoxifen group (FIG. 8 bottom)): decreased to the normal level
- cytotoxicity ([3]; maximum test concentration of 100 μM): less than 50%
- toxicity (cell viability) ([3]; up to 10 μM): no significant toxicity

Reference: US11878013B2, “Isoquinoline derivative, preparing method thereof, and pharmaceutical composition for preventing or treating autophagy related diseases containing the same as an active ingredient” (Korea Research Institute of Chemical Technology, priority 2021, dated 2024)
